# Patent US20260132129A1 (Genesis Therapeutics, Inc., priority 2022, published 2026)
# pIC50: −log10 of the molar value.
# Target: T1, PI3Kα H1047R (T47D cells) (Homo sapiens, UniProt P42336, H1047R)
# T1 construct: endogenous in cells; host or cells: T47D cells
# Assay: PI3Kα cellular assay: pAKT HTRF in T47D cells after EGF stimulation
# Type: cell-based
# Conditions: for pIC50: T47D cells (PI3Kα H1047R), pAKT S473 HTRF
# Method: SKBR3 or T47D cells are seeded in DMEM containing 10% FBS at 25k cells/well into 96-well cell culture format. Cells are incubated overnight at 37° C. in a 5% CO2 incubator and the following day cell media is aspirated, adherent cells are washed 1× with room temperature PBS prior to serum-free media application. Cells are returned to 37° C. 5% CO2 incubator and incubated a further 16 hrs. Compounds are added to serum starved adherent cells with a top dose of 10,000 nM and 3× multiple dose reductions for a minimum dose of 0.5 nM diluted in DMSO. Cell/compound incubation continues for 1 hr in a 37° C., 5% CO2 incubator prior to 10 minute PIK3CA stimulation with 20 ng/ml EGF. Cells treated with 0.1% DMSO and 20 ng/mL EGF are employed as negative control, cells treated with 10 uM Alpelisib and 20 ng/mL EGF are employed as a positive control. After 10 mins, plates are removed from incubator and cells are lysed with buffer and shaking 45 minutes. […] 384 well plate is left overnight at room temperature before reading HTRF on an Envision plate reader.
# ND denotes value not determined with that assay for the specified compound; • for T47D (H1047R) selectivity over SKBR3 (WT): A denotes >20-fold; B denotes 20-fold≥value>5-fold; C denotes ≤5-fold. ND denotes value not determined with that assay for the specified compound; and • for T47D pAKT lipophilic efficiency (LiPE): A denotes >4; B denotes 4≥value>2; C denotes ≤2. ND denotes value not determined with that assay for the specified compound.
# [1] = selectivity T47D (H1047R) over SKBR3 (WT), pAKT HTRF
# [2] = 1 hr compound, 20 ng/ml EGF 10 min
# [3] = selectivity of T47D (H1047R) over SKBR3 (WT) pAKT IC50
# T1 sequence (P42336 whole entry H1047R): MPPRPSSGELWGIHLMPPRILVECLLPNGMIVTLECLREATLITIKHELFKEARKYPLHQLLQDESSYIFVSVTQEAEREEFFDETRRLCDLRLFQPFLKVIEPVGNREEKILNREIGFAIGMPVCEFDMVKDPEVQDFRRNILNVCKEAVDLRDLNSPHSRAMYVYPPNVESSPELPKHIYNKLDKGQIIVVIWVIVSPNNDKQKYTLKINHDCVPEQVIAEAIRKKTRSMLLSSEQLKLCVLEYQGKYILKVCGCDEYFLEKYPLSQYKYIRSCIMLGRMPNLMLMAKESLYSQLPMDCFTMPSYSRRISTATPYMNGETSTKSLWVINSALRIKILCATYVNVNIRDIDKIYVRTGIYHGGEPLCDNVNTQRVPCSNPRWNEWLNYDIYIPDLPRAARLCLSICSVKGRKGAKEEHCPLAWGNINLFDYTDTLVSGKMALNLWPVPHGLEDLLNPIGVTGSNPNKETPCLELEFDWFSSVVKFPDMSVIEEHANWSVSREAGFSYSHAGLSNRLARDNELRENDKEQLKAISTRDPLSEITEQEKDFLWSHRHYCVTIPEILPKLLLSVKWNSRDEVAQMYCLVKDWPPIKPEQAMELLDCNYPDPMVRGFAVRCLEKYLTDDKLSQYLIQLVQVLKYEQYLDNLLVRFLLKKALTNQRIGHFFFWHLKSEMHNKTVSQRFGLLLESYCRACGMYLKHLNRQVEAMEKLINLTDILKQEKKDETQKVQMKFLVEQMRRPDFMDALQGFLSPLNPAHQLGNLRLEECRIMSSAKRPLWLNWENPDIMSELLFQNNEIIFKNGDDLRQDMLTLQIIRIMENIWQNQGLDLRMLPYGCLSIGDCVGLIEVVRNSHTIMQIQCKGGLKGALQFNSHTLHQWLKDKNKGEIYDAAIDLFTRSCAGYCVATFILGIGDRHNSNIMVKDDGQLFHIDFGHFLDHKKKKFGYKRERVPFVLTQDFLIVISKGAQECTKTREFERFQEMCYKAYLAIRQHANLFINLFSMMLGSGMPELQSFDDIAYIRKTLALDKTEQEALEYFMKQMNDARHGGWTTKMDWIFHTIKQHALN
# T1 sequence (P27986 whole entry partner): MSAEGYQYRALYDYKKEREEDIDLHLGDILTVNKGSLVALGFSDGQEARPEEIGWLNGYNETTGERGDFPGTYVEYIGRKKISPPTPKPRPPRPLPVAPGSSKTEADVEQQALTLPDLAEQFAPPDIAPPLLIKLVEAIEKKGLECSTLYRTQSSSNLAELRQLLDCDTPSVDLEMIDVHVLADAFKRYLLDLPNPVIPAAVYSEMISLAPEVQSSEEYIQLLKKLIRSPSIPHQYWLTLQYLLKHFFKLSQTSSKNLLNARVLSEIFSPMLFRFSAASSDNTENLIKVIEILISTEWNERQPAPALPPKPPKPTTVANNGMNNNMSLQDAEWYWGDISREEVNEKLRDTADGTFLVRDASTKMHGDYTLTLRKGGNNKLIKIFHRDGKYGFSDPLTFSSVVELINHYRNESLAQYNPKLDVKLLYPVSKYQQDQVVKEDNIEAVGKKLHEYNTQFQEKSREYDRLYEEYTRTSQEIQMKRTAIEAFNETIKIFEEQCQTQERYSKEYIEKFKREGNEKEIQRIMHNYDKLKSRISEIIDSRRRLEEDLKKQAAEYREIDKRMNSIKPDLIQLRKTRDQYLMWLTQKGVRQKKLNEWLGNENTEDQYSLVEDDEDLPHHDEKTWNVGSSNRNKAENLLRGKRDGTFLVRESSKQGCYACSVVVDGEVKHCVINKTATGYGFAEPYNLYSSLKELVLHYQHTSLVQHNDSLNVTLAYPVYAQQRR
Compound,pIC50 (EGF stimulation),T47D pAKT S473 HTRF IC50 (H1047R): T47D (H1047R) selectivity over SKBR3 (WT) [1],pIC50 [2],T47D pAKT S473 HTRF IC50 (H1047R): T47D (H1047R) selectivity over SKBR3 (WT) [3]
Cc1cc([C@@H](C)Nc2ccccc2C(=O)O)c2nc(-c3ccc(C4CCOCC4)nc3)c(C)c(=O)n2c1 [Compound 1146],> 7.00,A (A denotes >20-fold),–,–
Cc1cc([C@H](C)Nc2cccc3onc(O)c23)c2nc(-c3ccccc3)c(C)c(=O)n2c1 [Compound 1403],–,C (C denotes ≤5-fold),–,–
Cc1cc([C@H](C)Nc2ccccc2C(N)=O)c2nc(N3CCOCC3)cc(=O)n2c1 [Compound 147],–,B (B denotes 20-fold≥value>5-fold),5.70 to 6.30,–
"Cc1cc([C@@H](C)Nc2ccccc2-c2cc(O)no2)c2nc(-c3cccc(F)c3)c(C)c(=O)n2c1 [Compound 1368, (R)-2-(3-fluorophenyl)-9-(1-((2-(3-hydroxyisoxazol-5-yl)phenyl)amino)ethyl)-3,7-dimethyl-4H-pyrido[1,2-a]pyrimidin-4-one]",< 5.70,C (C denotes ≤5-fold),–,–
Cc1cc(C(C)Nc2ccccc2C(=O)O)c2nc(-c3ccc4c(c(N)nn4C)c3C)cc(=O)n2c1 (centres unmarked) [Compound 701],< 5.70,–,–,C (C denotes ≤5-fold)
Cc1cc([C@H](C)Nc2ccccc2C(=O)O)c2nc(N3Cc4ccccc4C3)cc(=O)n2c1 [Compound 403],–,C (C denotes ≤5-fold),< 5.70,–
"Cc1cc(C(C)Nc2ccccc2C(=O)O)c2nc(-c3ccc(CN4CCN(C(=O)C5CC5)CC4)c(F)c3)cc(=O)n2c1 (single isomer, unassigned) [Compound 420]",–,A (A denotes >20-fold),6.30 to 7.00,–
"Cc1cc(C(C)Nc2ccccc2C(=O)O)c2nc(-c3ccc(F)cc3)c(C)c(=O)n2c1 (centres unmarked) [Compound 691, 2-((1-(2-(4-fluorophenyl)-3,7-dimethyl-4-oxo-4H-pyrido[1,2-a]pyrimidin-9-yl)ethyl)amino)benzoic acid]",> 7.00,–,–,A (A denotes >20-fold)
Cc1cc([C@H](C)Nc2ccccc2C(=O)O)c2nc(-c3ccc4c(c3)c(C)nn4C)cc(=O)n2c1 [Compound 697],–,–,–,C (C denotes ≤5-fold)
Cc1cc([C@@H](C)NC2=C(C(=O)O)C=CCC2)c2nc(-c3ccc(CC4CCN(C(=O)C5CC5)CC4)nc3)cc(=O)n2c1 [Compound 783],< 5.70,–,–,C (C denotes ≤5-fold)
Cc1cc(C(C)Nc2ccccc2C(=O)O)c2nc(-c3ccc4c(c3)C(C)NN4C)cc(=O)n2c1 (centres unmarked) [Compound 757],< 5.70,–,–,C (C denotes ≤5-fold)
Cc1cc([C@H](C)Nc2ccccc2C(=O)O)c2nc(N3CCC(C)(C)CC3)cc(=O)n2c1 [Compound 432],–,C (C denotes ≤5-fold),–,–
CCc1ccn2c(=O)c(C)c(-c3cccc(F)c3)nc2c1[C@H](C)Nc1ccccc1C(=O)O [Compound 1326],> 7.00,A (A denotes >20-fold),–,–
"Cc1cc([C@@H](C)Nc2ccccc2C(=O)O)c2nc(-c3cnc4c(c3)c(C)c(C)n4C)c(C)c(=O)n2c1 (single isomer, unassigned) [Compound 804]",> 7.00,–,–,A (A denotes >20-fold)
Cc1cc(C(C)Nc2ccccc2C(=O)O)c2nc(-n3cnc4ccc(O)cc43)cc(=O)n2c1 (centres unmarked) [Compound 801],< 5.70,–,–,C (C denotes ≤5-fold)
"Cc1cc(C(C)Nc2ccccc2C(=O)O)c2nc(N3Cc4ccccc4C3)c(C)c(=O)n2c1.O=C(O)C(F)(F)F (centres unmarked) [Compound 1412, 2-((1-(2-(isoindolin-2-yl)-3,7-dimethyl-4-oxo-4H-pyrido[1,2-a]pyrimidin-9-yl)ethyl)amino)benzoic acid trifluoroacetate]",> 7.00,A (A denotes >20-fold),–,–
Cc1cc([C@@H](C)Nc2ccccc2-c2ccnnc2)c2nc(-c3ccc4c(C)cn(C)c4c3)c(C)c(=O)n2c1 [Compound 1133],< 5.70,C (C denotes ≤5-fold),–,–
Cc1cc(C(C)Nc2ccccc2C(=O)O)c2nc(-c3c(C)ccc4[nH]ncc34)c(C)c(=O)n2c1 (centres unmarked) [Compound 813],< 5.70,–,–,C (C denotes ≤5-fold)
Cc1cc(C(C)Nc2ccccc2S(N)(=O)=O)c2nc(N3C[C@@H](C)O[C@@H](C)C3)cc(=O)n2c1 (some centres unmarked) [Compound 729],6.30 to 7.00,–,–,A (A denotes >20-fold)
